In patent publication US10457947B2, “Targeting of human glucocorticoid receptor beta in cancer” (The University of Toledo, priority 2016, dated 2019):

Tests used:
[1] = system: E006AA cell lines; assay: Migration of E006AA-Par and E006AA-hT prostate cancer cells; type: cell-based, human
Source text: FIG. 15: Lentiviral shRNA suppression of human GRβ in E006AA-Par and E006AA-hT prostate cancer cells suppresses migration. *, P<0.05 and **, P<0.01 (scramble vs GRβ KD). N=12.

[2] = system: T24 bladder cancer cells; assay: Scratch (wounding) migration assay in T24 cells; type: cell-based, human
Protocol: Cells were seeded on a 6-well plate and grown for 24 hours until a monolayer of 90% confluent cells was obtained. A scratch wound in the cell monolayer was introduced using a sterile pipette tip. Images were taken at the time of wounding, and every 5 hours thereafter. Migration was measured as the fold change of the width of the wound remaining. To determine miRNA and mRNA expression during the scratch (wounding assay), total RNA was collected using the miRNeasy® Mini Kit (Qiagen) (described above) at 0 and 3 hours after the migration.

[3] = system: human GRβ mRNA; assay: GRβ mRNA expression by Real-Time PCR in T24 cells; type: cell-based
Protocol: The human uroepithelial carcinoma cell lines UMUC-3 and T24 (ATCC) were routinely cultured and maintained in Minimum Essential Medium (MEM) containing 10% fetal bovine serum (FBS) with 1% antibiotic-antimycotic. Cells were maintained at 37° C. and 5% CO2. Media was changed to MEM containing 10% Dialyzed-FBS with 1% antibiotic antimycotic 24 hours before hormone treatments.
A peptide nucleic acid (PNA) (Sweet-P) conjugated to a cell penetrating peptide (CPP) targeting the miR144 binding site in the 3′UTR of the human GRβ was designed using the PANAGENE® website (www.panagene.com). The Sweet-P targeting sequence was: (TGCCATACACAGTAT) [SEQ ID NO:1]. The Sweet-P sequence targeted the miR144 binding site in the 3′ UTR of human GRβ. (FIG. 7.) All PNAs were attached to an O-linker and a modified tat protein (VQRKRQKLMP) [SEQ ID NO:2] for delivery into the cell. Treatment with Sweet-P was performed for 48 hrs before the cells were analyzed.

[4] = system: mTOR; assay: Immunostaining of mTOR in T24 cells; type: cell-based, human; details: 10 nM Sweet-P, 48 hours
[5] = system: GRα; assay: Immunofluorescence of GRα in T24 cells; type: cell-based, human
Protocol: (§1) FIGS. 3A-3D: Dexamethasone and insulin treatment in T24 cells (FIGS. 3A-3B) and UMUC-3 cells (FIGS. 3C-3D). GRβ and GRα expression and location were measured using immunofluorescence with control (vehicle treatment), dexamethasone, or insulin treatments. Cells were seeded onto coverslips in media containing 10% dialyzed FBS for 24 hours before treating. Cells were treated with 100 nM insulin, 100 nM dexamethasone, or vehicle for 30 minutes. Secondary antibodies (labeling of human GRα or GRβ) are shown in green, DAPI (nuclei labeling) are shown in blue, a merge of the green and blue images are shown in panel 3 to represent localization, and a bright field image is shown in gray (scale bar=25 μm).
Cells were seeded onto a glass coverslip placed in a 6-well plate and grown were grown to desired confluence. Cells were then fixed with 3% paraformaldehyde, permeated with PBS containing 0.25% Triton X (PBST), and blocked with PBST containing 1% BSA. Slides were then stained with either anti-hGRα Rabbit IgG or anti-hGRβ Rabbit IgG antibodies obtained from Antibody Research. Secondary staining was performed using anti-Rb IgG 488 antibody from Life Technologies. Coverslips were planted onto slides with Fluoromount-G®, and DAPI was added to stain nuclei. Slides were magnified using a Leica Microscope with a 63X oil Immersion lens. […]

[6] = system: PTEN; assay: Immunostaining of PTEN in T24 cells; type: cell-based, human; details: 10 nM Sweet-P, 48 hours
[7] = system: 3′UTR of human GRβ; assay: 3′UTR GRβ-Luc luciferase reporter assay in T24 cells; type: cell-based; details: Sweet-P at 0.1 nM, 1.0 nM, and 10 nM, 48 hours, versus 0 nM
Protocol: For transient transfection, cells were plated on a 6-well or 12-well dish in MEM containing 10% FBS. Cells were washed with OPTI-MEM and transfected using GeneFect® (Alkali Scientific, Inc.), according to the manufacturer's […] protocol. OPTI-MEM was removed after 12 h and MEM containing 10% FBS was added.
The expression vector pMirTarget containing the 3′UTR of hGRβ (hGRβ 3′UTR-luc) was purchased from Origene. The binding sites were mutated using the QuikChange Lightning Multi Site-Directed Mutagenesis Kits® (Agilent Technologies). Successful mutations were confirmed through sequencing by Operon MWG. Cells were seeded onto a 12-well plate and grown overnight. Transient transfection was performed as described above. To determine the effect of Sweet-P on the T24 bladder cancer cells, the cells were treated 24 h after transfection for 48 hours post transfection, 3′UTR GRβ-Luc WT or mutant expression was measured by luciferase, and pRL-CMV Renilla reporter for normalization to transfection efficiency, using the Promega dual luciferase assay system (Promega, Madison, Wis.).
A peptide nucleic acid (PNA) (Sweet-P) conjugated to a cell penetrating peptide (CPP) targeting the miR144 binding site in the 3′UTR of the human GRβ was designed using the PANAGENE® website (www.panagene.com). […] Treatment with Sweet-P was performed for 48 hrs before the cells were analyzed.

[8] = system: GRβ; assay: GRβ expression in E006AA-Par prostate cancer cells; type: cell-based, human
Source text: (§2) FIG. 10: Sweet-P blocks GRβ expression in lung and prostate cancer cells.

[9] = target: T1, GRα (Homo sapiens, UniProt P04150); assay: GRα controlled gene expression by Real-Time PCR in T24 cells; type: cell-based; details: Sweet-P 48 hours then 2 hours of dexamethasone
T1 construct: endogenous in cells; host or cells: T24 human uroepithelial carcinoma cells (ATCC)
T1 sequence (P04150 1-777): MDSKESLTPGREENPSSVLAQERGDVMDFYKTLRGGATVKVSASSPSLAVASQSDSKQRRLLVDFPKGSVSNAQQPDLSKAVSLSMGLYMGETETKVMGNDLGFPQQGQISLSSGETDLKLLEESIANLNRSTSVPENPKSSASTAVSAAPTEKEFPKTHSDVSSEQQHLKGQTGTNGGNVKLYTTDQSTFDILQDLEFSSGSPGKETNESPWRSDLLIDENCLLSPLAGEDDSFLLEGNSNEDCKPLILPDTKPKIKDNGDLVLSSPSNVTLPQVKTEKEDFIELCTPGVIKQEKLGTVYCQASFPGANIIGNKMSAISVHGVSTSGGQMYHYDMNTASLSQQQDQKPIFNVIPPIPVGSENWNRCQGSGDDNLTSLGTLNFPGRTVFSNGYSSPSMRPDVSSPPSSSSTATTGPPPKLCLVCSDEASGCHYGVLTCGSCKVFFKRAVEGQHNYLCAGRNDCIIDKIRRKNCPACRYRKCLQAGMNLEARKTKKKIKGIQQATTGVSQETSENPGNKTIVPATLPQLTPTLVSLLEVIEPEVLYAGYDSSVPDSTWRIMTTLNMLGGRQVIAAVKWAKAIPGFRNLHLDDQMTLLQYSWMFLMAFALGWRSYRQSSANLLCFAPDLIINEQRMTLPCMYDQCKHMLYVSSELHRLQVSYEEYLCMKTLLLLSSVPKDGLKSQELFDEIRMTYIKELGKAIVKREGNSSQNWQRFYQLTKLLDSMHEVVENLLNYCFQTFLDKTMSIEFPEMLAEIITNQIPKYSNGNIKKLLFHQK
Protocol: GRα controlled gene response was measured by Real-Time PCR for FKBP51, GILZ, p21, VEGFA, GRα, and GRβ. Cells were seeded in media containing 10% dialyzed FBS for 24 hours before treatment.
Total RNA was extracted from cell cultures using the 5-Prime PerfectPure® RNA Cell Kit (Fisher Scientific Company, LLC). Total RNA was read on a NanoDrop 2000® spectrophotometer (ThermoFisher Scientific, Wilmington, Del.) and cDNA was synthesized using High Capacity cDNA Reverse Transcription Kit (Applied Biosystems). PCR amplification of the cDNA was performed by quantitative real-time PCR using TrueAmp SYBR Green qPCR SuperMix® (Smart Bioscience). The thermocycling protocol consisted of 10 min at 95° C., 40 cycles of 15 sec at 95° C., 30 sec at 60° C., and 20 sec at 72° C., and finished with a melting curve ranging from 60-95° C. to allow distinction of specific products. Normalization was performed in separate reactions with primers to GAPDH.

[10] = system: GRβ; assay: GRβ expression in A549 lung cancer cells; type: cell-based, human
Source text: as §2

[11] = system: GRβ; assay: Immunofluorescence of GRβ in T24 cells; type: cell-based, human
[12] = system: UMUC-3 cells; assay: miRNA expression by Real-Time PCR in UMUC-3 cells; type: cell-based, human; details: 100 nM Insulin, 2 hours
Protocol: FIGS. 8A-8B: The effect of dexamethasone treatment on cell migration and miRNA expression in UMUC-3 and T24 bladder cancer cells. Migration was measured in the UMUC-3 and T24 cells that were treated with either vehicle or 100 nM dexamethasone for 30 minutes prior to wounding, and is presented as the fold-change in the wound width remaining (FIG. 8A). Images of the migration assay at […] post wounding are shown, with wound edges marked at T0 (black solid line) and T15 (white dashed line). ANOVA p<0.001; Bonferoni comparisons ***, p<0.0001 (versus Vehicle) (±S.E.; n=6). Total RNA was extracted from the UMUC3 and T24 cells after treating with either vehicle, 100 nM dexamethasone, or 100 nM Insulin in dialyzed media for 2 hours before harvesting, and miRNA expression was measured by Real-Time PCR (FIG. 8B). *, p<0.05; (Dex versus Veh); $, p<0.05; (Ins versus Veh); ##, p<0.01; ##, p<0.001; (T24 versus UMUC3) (±S.E.; n=6).
Total RNA was extracted from cell cultures using the miRNeasy® Mini Kit (Qiagen). Total RNA was read on a NanoDrop 2000® spectrophotometer (Thermo Fisher Scientific, Wilmington, Del.) and cDNA was synthesized using the miScript RT Kit (Qiagen). […] The miScript Primer Assay® primers were purchased from Qiagen. Normalization was performed in separate reactions with primers to Hs_RNU6-2_11, At_U19_1, and Hs_SNORD61_11.

[13] = system: T24 cells; assay: miRNA expression by Real-Time PCR in T24 cells; type: cell-based, human; details: 100 nM Insulin, 2 hours
Protocol: FIGS. 8A-8B: […] ANOVA p<0.001; Bonferoni comparisons ***, […]=6). […] Total RNA was extracted from cell cultures using the miRNeasy® Mini Kit (Qiagen). […] The miScript Primer Assay® primers were purchased from Qiagen. Normalization was performed in separate reactions with primers to Hs_RNU6-2_11, At_U19_1, and Hs_SNORD61_11. The cloning vector pCMV-MIR containing the miR144 sequence was purchased from Origene. Cells were seeded on a 6-well plate, and transient transfection of the plasmid was completed as described above. After 48 hours-post transfection, RNA was harvested.

[14] = system: GRβ; assay: Immunofluorescence of GRβ in UMUC-3 cells; type: cell-based, human; details: 100 nM, 30 minutes
Protocol: as §1, with “Cells were seeded onto coverslips in media containing 10% dialyzed FBS for 24 hours before treating.” left out
(§3) Cells were seeded onto a glass coverslip placed in a 6-well plate and grown were grown to desired confluence. […] Slides were then stained with either anti-hGRα Rabbit IgG or anti-hGRβ Rabbit IgG antibodies obtained from Antibody Research. […] Coverslips were planted onto slides with Fluoromount-G®, and DAPI was added to stain nuclei. Slides were magnified using a Leica Microscope with a 63X oil Immersion lens. Images were acquired in the XYZ plane in 1 μm steps with a 63X oil objective (NA 1.40). Images were acquired with the LAS AF® software in sequential scan mode. AlexaFluor488® was excited at 488 nm with collection at 500-558 nm and DAPI was excited with the multi-photon (MP) laser tuned to 790 nm with collection at 420-500 nm. Images are 2D projections of the of image stack as labeled. […]

[15] = system: GRα; assay: Immunofluorescence of GRα in UMUC-3 cells; type: cell-based, human; details: 100 nM, 30 minutes, versus vehicle
Protocol: as §1, with “Cells were seeded onto coverslips in media containing 10% dialyzed FBS for 24 hours before treating.” left out
as §3

[16] = 100 nM, 30 minutes, versus vehicle

Substance: GRβ shRNA: pGFP-C-shLenti lentiviral GRβ shRNA (CCAGAAAGCACATCTCACACATTAATCTG) [reference compound]
- migration ([1]; E006AA prostate cancer cells, lentiviral shRNA versus scramble): significant reduction
- migration ([2]; T24 GRβ shRNA cells versus T24 Scramble): significant (ANOVA: p<0.001) decrease
- knockdown of GRβ expression (reduction) ([3]; stable shRNA lentivirus, versus T24 Scramble): 64%

Substance: Sweet-P: PNA TGCCATACACAGTAT [SEQ ID NO:1] attached to an O-linker and modified tat protein VQRKRQKLMP, targeting the miR144 binding site in 3′UTR of human GRβ (all peptide nucleic acid (PNA); O-linker and modified tat peptide attached, position not given here)
- mTOR protein expression [4]: unaffected
- migration ([1]; E006AA-Par and E006AA-hT cells, Sweet-P): significantly decreased
- GRα protein expression ([5]; 10 nM Sweet-P, 48 hours): no effect
- PTEN protein expression [6]: significantly (p<0.0001) increased
- luciferase expression of the pMirTarget 3′ UTR hGRβ construct [7]: significantly (p<0.001) reduced
- migration (wound width remaining) ([2]; T24 cells, 10 nM Sweet-P for 48 hours prior to wounding): significantly (ANOVA: p<0.001) inhibited
- GRβ expression [8]: blocks
- FKBP51 expression (GRα activity) [9]: enhancing expression
- tumor necrosis factor α (TNFα) expression (GRα activity) [9]: decreasing
- GRβ expression [10]: blocks
- GRβ mRNA expression ([3]; Sweet-P at 1.0 nM, 10 nM, 50 nM, and 100 nM, 48 hours, versus 0 nM): significantly (p<0.05) decreased
- GRβ protein expression ([11]; 10 nM Sweet-P, 48 hours): reduced

Substance: insulin: insulin, hormone treatment at 100 nM
- GRα expression (immunofluorescence) [5, 16]: significantly decreased (p<0.001)
- miR-181a expression [12]: suppress
- expression of miR-33a, miR-144, miR-181a, miR-181b, miR-181c, or miR-181d [13]: did not significantly change
- GRβ localization [14]: higher in the nucleus
- GRβ expression (immunofluorescence) ([14]; versus vehicle): significantly increased
- GRα expression (immunofluorescence) [15]: no effect
- GRβ localization ([11]; 100 nM, 30 minutes): no change
- GRβ expression (immunofluorescence) [11, 16]: significantly increased
